From US6538028B1, “Method for inhibiting complement activation” (Vanderbilt University, priority 2000, dated 2003) come the findings set out here.

“And” between values parts separate entries of the source, which are not always exact repeats. Equal entries are not always repeated. Where two headings read alike, the source gives them in different places. Marks after values point to notes of the source that are not given here.

Assay [1] deals with piglet lungs perfused with human blood. The protocol:
[…] piglets (4-6 kg) were used in an established in situ ex vivo isolated lung perfusion model. Piglet lungs were perfused with unmodified human blood or blood treated with either aurintricarboxylic acid (ATA, 0.5 mg/mL; GPIb inhibitor), SC52012A (SC, 0.2 μg/mL; GPIIb/IIIa antagonist, G.D. Searle & Co. of Chicago, Ill.), or both. Thus, experimental groups received either 500 mg of ATA, 200 μg of SC52012A, or both drugs added to fresh human blood perfusate (pooled from three donors) prior to lung perfusion, while control groups received unmodified blood.
Pulmonary vascular resistance (PVR) was calculated from pulmonary artery land vein pressures and flow. Pulmonary vein effluent was collected serially for comparison of complement activation (C3a), mast cell activation (histamine) and thromboxane production (TXB2) between groups. Survival endpoints were loss of transpulmonary flow, loss of oxygenation across the lungs, frank tracheal edema, and loss of perfusate volume (˜1L) into lung parenchyma.

Another assay relates to complement (C3a, C5b-9). The following applies: for C3a Mean: mean of two samples; for C3a / C5b-9: single sample. The protocol:
Platelet poor plasma (PPP—Example 4) and platelet rich plasma (PRP—Example 5) was prepared from human heparinized blood. Human plasma was treated with ATA (0.5 mg/ml), SC (0.5 μg/ml), ATA+SC, bivalirudin (HIRULOG®, 0.1 g/L), or water (negative control) and then incubated in presence of zymosan (10 mg/mL) or cobra venom factor (CVF, 1 or 5 U/mL) to activate complement (negative control is water), for one hour at 37° C. with shaking. Then, the samples were subjected to centrifugation at 10,000 g for 45 minutes. The supernatant was then frozen in small aliquots at −70° C. C3a and C5b-9 levels were then assayed using commercial ELISA kits (Quidel).

Assay [2] has as its system piglet lungs perfused with heparinized human blood. On the procedure: In an established in situ, ex vivo model, piglet lungs were perfused with either heparinized (3,000 U/L) human blood or with blood additionally pretreated with 140 mg/L of bivalirudin (a semisynthetic analogue of hirudin). Pulmonary vein effluent was collected serially for measurement of complement activation (C3a), mast cell activation (histamine), and thrombin formation (F1+2). Survival endpoints were loss of transpulmonary blood flow, loss of oxygenation across the lungs, and sequestration of perfusate volume (˜1 L) into the lung. Statistical comparisons were made using the 2-tailed t-test.

Where [3] appears, read: PPP, CVF 1U, listed as HIRULOG ®.

With `O=C(O)C1=CC(=C(c2ccc(O)c(C(=O)O)c2)c2ccc(O)c(C(=O)O)c2)C=CC1=O` [ATA, aurintricarboxylic acid], the “ΔC3a, 1 min, μg/mL (Mean ± SEM)” value in assay [1] (1 min, pulmonary vein effluent) is listed as 0.30* μg/mL. In assay [1] (10 min, controls 89%), the “Platelet sequestration at 10 min” value is reported as 51%. Moreover, in assay [1] (10 min, pulmonary vein effluent), the “ΔC3a, 10 min, μg/mL (Mean ± SEM)” value was found to be 1.81 µg/mL. This molecule yielded a median survival in assay [1] (control 12 min) of 25 min. Moreover, in assay [1] (pig lung perfused with human blood, ATA 0.5 mg/mL, SC 0.2 μg/mL), the “Median Survival in min (95% conf int)” value is reported as 25* min.

With bivalirudin, in the assay on complement (C3a, C5b-9) (PPP, CVF 1U), the “C5b-9 Mean” value came out at 917 ng/mL and the “C3a Mean” value worked out at 1350 ng/mL. Also, in the assay with complement (C3a, C5b-9) (setting [3]), the “C3a” value was 1250 ng/mL and 1450 ng/mL; the “C5b-9” value was 890 ng/mL and 943 ng/mL. For the same molecule, in the assay on complement (C3a, C5b-9) (PPP, water (no activator)), the “C5b-9 Mean” value was 26 ng/mL, the “C3a Mean” value is given as 548 ng/mL and the “C5b-9” value came out at 26 ng/mL. Besides, in the assay with complement (C3a, C5b-9) (PPP, water (no activator), 1 h 37° C., listed as HIRULOG ®), the “C3a” value was 590 ng/mL and 505 ng/mL. Moreover, in the assay on complement (C3a, C5b-9) (PRP, CVF 1U), the “C5b-9 Mean” value was 842 ng/mL, the “C3a Mean” value was determined as 1650 ng/mL and the “C5b-9” value came out at 842 ng/mL. In addition, the “C3a” value in the assay with complement (C3a, C5b-9) (PRP, CVF 1U, listed as HIRULOG ®) was 1800 ng/mL and 1500 ng/mL. Further, in the assay with complement (C3a, C5b-9) (PRP, water (no activator)), the “C5b-9 Mean” value worked out at 126 ng/mL, the “C3a Mean” value is on record as 435 ng/mL and the “C5b-9” value stood at 126 ng/mL. The “C3a” value in the assay on complement (C3a, C5b-9) (PRP, water (no activator), 1 h 37° C., listed as HIRULOG ®) is 490 ng/mL and 380 ng/mL. Moreover, the “thrombin production limited (as measured by F1+2)” value in assay [2] is “more than 90%”. Further, the “ΔC3a 1 min μg/ml (± SEM)” value in assay [2] (1 min) is reported as 0.82 (0.8)* μg/ml. The “PVR cm H2O/mL/min 5 min (± SEM)” value in assay [2] (5 min) is 0.16 (.05)* cm H2O/mL/min. In assay [2] (10 min), the “Δ histamine 10 min nM (± SEM)” value is 21 (4)* nM and the “ΔC3a 10 min μg/ml (± SEM)” value is recorded as 1.97 (1) μg/ml. Moreover, the “ΔF1 + 2 10 min nM (± SEM)” value in assay [2] (10 min, thrombin formation) is listed as 0.5 (0.8)* nM. Besides, the “Survival Min (± SEM)” value in assay [2] (bivalirudin 140 mg/L in heparinized human blood) was 77 (22)* Min. This molecule also came in with a mean survival in assay [2] (control 8 minutes) of 77 min. Also, in assay [2] (in words), the Complement activation entry is listed as “significantly blunted”, the histamine release entry was “significantly decreased”, the intrapulmonary platelet sequestration entry is recorded as “significantly blunted” and the “rise in PVR” value is given as “significantly decreased”.
